Experimental data published in US20240041832A1, “METHODS AND COMPOSITIONS FOR TREATING EYE DISEASES” (JENIVISION INC., priority 2021, published 2024).
Read-outs that look alike come from different tables or passages of the source.

How the values were obtained:
[1] = molecular target: PAF receptor (Homo sapiens, UniProt P25105); details: Bley K R et al. (2006); cited from earlier work
[2] = Rabbit bio-disposition, eye-drop to one eye (OD) (Example 2); type: in vivo, New Zealand rabbits
Procedure: In order to verify that drug delivery of JV-DE1 was essentially confined to ocular redistribution other than via the blood circulation following contact of the eye-drop with the anterior segment ocular surface tissues, a monocular drug application study was performed. JV-DE1 was formulated in 2.4% CrEL and 0.2% glycerol in pH 7.6 TBS. CrEL is polyoxyl 35 castor oil. Other names for polyoxyl 35 castor oil include macrogolglycerol ricinoleate, PEG-35 castor oil, and […]. Briefly, for the bio-disposition experiment, JV-DE1 was administered to one eye (OD) via ocular instillation to said eye at a dose of 0.12 mg/eye. Blood samples (1 mL) and were collected at 0, 0.5, 2, 6, and 24 h after a single eye-drop ocular administration. At each of the above time points, one animal was euthanized after blood collection and selected eye tissue samples were collected from both eyes. Aqueous humor, bulbar conjunctiva, anterior sclera, posterior sclera (in the optic nerve exit region), retina, cornea, ciliary body, and iris were collected and weighed. The samples were then stored in an ultra-low temperature freezer. JV-DE1 concentrations in the samples were subsequently determined by the LC-MS/MS method.
JV-DE1 was widely distributed in the ocular tissues of the eye (OD) that received the compound. The concentration of JV-DE1 in ocular tissue levels were well-maintained over an 8 hour period post-dosing but had declined by 24 hours. The cornea, anterior sclera, and bulbar conjunctiva had the highest levels of JV-DE1 in the treated eye, which was about 100-fold greater than the JV-DE1 levels in the ciliary body/iris, posterior sclera, and retina. The most significant finding was the unexpected level of JV-DE1 in the vitreous humor. […] JV-DE1 levels in the retina of the contralateral, untreated eye were, however, one-tenth of those in the treated eye. […] Only about 10% achieved the retina by delivery from the bloodstream.

[3] = molecular target: vascular IP receptor (Homo sapiens, UniProt P43119); details: Jones R L et al. (2006); cited from earlier work
[4] = molecular target: T1, IP receptor (Homo sapiens, UniProt P43119); details: U.S. Pat. No. 9,321,745; cited from earlier work
T1 construct: VEGF release from human immune cells when macrophages were primed with TNFα; endogenous in cells; host or cells: human macrophages primed with TNFα

[5] = Biodistribution of JV-DE1 after single periorbital skin administration (Example 3); type: in vivo, cynomolgus monkeys; details: for concentration at 3 h / concentration at 6 h / concentration at 0.5 h / concentration at 24 h: topical; for concentration at 3 h: 160.58 μg/right eye; for concentration at 6 h: 162.23 μg/right eye; for concentration at 0.5 h: 179.12 μg/right eye; for concentration at 24 h: 159.26 μg/right eye
Procedure: An additional experiment on JV-DE1 involving determining its bio-disposition following topical application to the periorbital skin that surrounds the anterior portion of the globe was performed.
JV-DE1 was formulated in medium chain triglyceride (MCT) oil. An amount of about 0.16 mg of JV-DE1 formulation was administered to one eye (OD) by circumferential topical application to the periorbital skin that surrounds the anterior portion of the globe. […] The following representative tissues were collected; upper eyelid, cornea, retina, and vitreous humor. JV-DE1 concentrations in the samples were subsequently determined by the LC-MS/MS method. The results are summarized below in Table 1

[6] = Rabbit pharmacokinetics and ocular tissue distribution, eye-drop to both eyes (Example 1); type: in vivo, New Zealand rabbits
Procedure: A retinal bioavailability study was performed on 4,5-dihydro-N-[4-[[4-(1-methylethoxy) phenyl] methyl] phenyl]-1H-imadazol-2-amine (assigned the coded notation JV-DE1). This study provided an indication that the compound formulated in an eye-drop and administered bilaterally to the anterior ocular surface was bioavailable in the retina. This pharmacokinetics and ocular tissue distribution study of JV-DE1 was performed in New Zealand rabbits. Briefly, […] (male) received JV-DE1 via ocular instillation to both eyes at a dose of 0.12 mg/eye. Blood samples (1 mL) were collected at 0, 0.5, 2, 4, 8, and 24 h after single ocular administration to both eyes. At each time point, one animal was euthanized after blood collection and then eye tissue samples were collected from both eyes. Aqueous humor, bulbar conjunctiva, anterior sclera, posterior sclera (in the optic nerve exit region), retina, cornea, ciliary body, and iris were collected and weighed. The samples were then stored in an ultra-low temperature freezer. Drug concentrations in the samples were subsequently determined by the LC-MS/MS method. Results are shown in FIG. 2A (right eye) and FIG. 2B (left eye).
JV-DE1 was widely distributed in the ocular tissues, and with no meaningful difference between the left and right eye, since drug administration was bilateral. JV-DE1 ocular tissue levels were well-maintained over an 8 hour period post-dosing but had declined by 24 hours. The cornea, anterior sclera, and bulbar conjunctiva had the highest levels of JV-DE1 in both eyes, whereas JV-DE1 levels were lower in those structures located within the globe. The most significant finding was the unexpectedly high levels of JV-DE1 in the retina and the posterior sclera, which underlies and supports the retina.

[7] = 0.5 h, 179.120 μg/right eye periorbital skin
[8] = 3 h, 160.580 μg/right eye periorbital skin
[9] = 6 h, 162.230 μg/right eye periorbital skin
[10] = 24 h, 159.260 μg/right eye periorbital skin

T1 sequence (P43119 whole entry): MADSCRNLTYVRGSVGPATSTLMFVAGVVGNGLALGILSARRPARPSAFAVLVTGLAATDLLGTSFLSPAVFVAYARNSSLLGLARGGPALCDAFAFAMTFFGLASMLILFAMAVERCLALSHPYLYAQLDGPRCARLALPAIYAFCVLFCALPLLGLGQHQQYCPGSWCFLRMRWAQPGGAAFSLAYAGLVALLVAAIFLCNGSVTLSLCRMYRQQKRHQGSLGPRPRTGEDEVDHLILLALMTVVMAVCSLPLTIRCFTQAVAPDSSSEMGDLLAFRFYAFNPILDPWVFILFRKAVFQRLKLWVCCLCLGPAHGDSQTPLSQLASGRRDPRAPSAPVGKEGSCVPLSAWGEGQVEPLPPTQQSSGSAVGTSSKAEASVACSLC
Sequence of vascular IP receptor (P43119 whole entry): as above
Sequence of PAF receptor (P25105 whole entry): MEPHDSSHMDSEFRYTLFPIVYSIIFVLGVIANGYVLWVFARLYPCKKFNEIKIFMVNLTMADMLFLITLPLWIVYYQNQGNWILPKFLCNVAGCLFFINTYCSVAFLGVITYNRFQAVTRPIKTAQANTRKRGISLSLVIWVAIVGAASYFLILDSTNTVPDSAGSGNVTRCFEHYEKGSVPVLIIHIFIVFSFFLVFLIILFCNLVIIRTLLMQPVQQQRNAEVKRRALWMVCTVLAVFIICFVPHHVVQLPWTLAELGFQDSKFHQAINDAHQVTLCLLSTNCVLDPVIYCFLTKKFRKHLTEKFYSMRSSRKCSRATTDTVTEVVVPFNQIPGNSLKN

In the case of `CC(C)Oc1ccc(Cc2ccc(NC3=NCCN3)cc2)cc1` [JV-DE1, 4,5-dihydro-N-[4-[[4-(1-methylethoxy)phenyl]methyl]phenyl]-1H-imadazol-2-amine], the pKi [1] is listed as 7.9, the Cmax ([2]; New Zealand, rabbit, plasma, topical or ocular, ocular instillation to one eye (OD), 0.12 mg/eye, at 0.5 hours post-dose) is listed as 0.95 ng/mL and the “retina level of contralateral untreated eye relative to treated eye” value ([2]; OS vs OD) is listed as “one-tenth”. For the same compound, the “share of drug reaching the retina by delivery from the bloodstream” value ([2]; monocular eye-drop) was “about 10%”, the “share of drug reaching the retina by intra-global redistribution of the eye-drop” value ([2]; monocular eye-drop) was 90% and the “tissues with detectable compound in contralateral untreated eye (OS)” value ([2]; monocular eye-drop to OD) was “detected only in the cornea, posterior sclera, and retina”. The “time to complete clearance from plasma” value ([2]; ocular instillation to one eye (OD), 0.12 mg/eye) was at most 24 h, the “levels in cornea, anterior sclera and bulbar conjunctiva relative to ciliary body/iris, posterior sclera and retina” value ([2]; treated eye (OD)) was “about 100 fold” and the pA2 [3] was 8.2. For the same compound, the “VEGF release induced by cicaprost in the presence of TNFα” value [4] was “abolished”, the “% of administered dose, Right cornea” value [5, 7] was 0.00% and the “% of administered dose, Right retina” value [5, 7] was 0.09%. For the same compound, the “% of administered dose, Right upper eyelid” value [5, 7] was 0.64%, the “% of administered dose, Right vitreous humor” value [5, 7] was 4.67% and the “% of administered dose, Right cornea” value [5, 8] was 0.00%. For the same compound, the “% of administered dose, Right retina” value [5, 8] was 0.26%, the “% of administered dose, Right upper eyelid” value [5, 8] was 1.50% and the “% of administered dose, Right vitreous humor” value [5, 8] was 2.91%. The “% of administered dose, Right cornea” value [5, 9] was 0.00%, the “% of administered dose, Right retina” value [5, 9] was 0.25% and the “% of administered dose, Right upper eyelid” value [5, 9] was 0.48%. The “% of administered dose, Right vitreous humor” value [5, 9] was 3.13%, the “% of administered dose, Right cornea” value [5, 10] was 0.00% and the “% of administered dose, Right retina” value [5, 10] was 0.05%. The “% of administered dose, Right upper eyelid” value [5, 10] was 0.60%, the “% of administered dose, Right vitreous humor” value [5, 10] was 1.79% and the “Drug Concentration in Plasma” value ([5]; 24 h, 159.260 μg/right eye periorbital skin, animal 104, LLOQ 0.1 ng/ml) was “BLQ”. For the same compound, the “drug level in retina at all tested time points” value ([5]; NIODP 165.30±4.65 μg/eye (OD)) was “greater than 1000 ng/g”, the “drug level delivered to retina via NIODP” value ([5]; all tested time points) was over 1 µg/g and the plasma concentrations ([5]; all time points, LLOQ 0.1 ng/ml) was “less than 0.3 ng/ml”. It also gave a Cmax ([5]; cynomolgus monkey, plasma, topical or ocular, 0.16 mg, single dose monocular periorbital administration, over the 6 hour post-dose period) of 0.13 to 0.26 ng/mL, a concentration at 3 h ([5]; cynomolgus monkey, plasma, 3 h, 160.580 μg/right eye periorbital skin, animal 102, read-out: Drug Concentration in Plasma) of 0.21 ng/mL and a concentration at 6 h ([5]; cynomolgus monkey, plasma, 6 h, 162.230 μg/right eye periorbital skin, animal 103, read-out: Drug Concentration in Plasma) of 0.26 ng/mL. The concentration at 0.5 h ([5]; cynomolgus monkey, plasma, 0.5 h, 179.120 μg/right eye periorbital skin, animal 101, read-out: Drug Concentration in Plasma) was 0.131 ng/mL, the concentration at 24 h ([5]; cynomolgus monkey, right cornea, 24 h, 159.260 μg/right eye periorbital skin, read-out: Drug Concentration in Tissue, Right cornea) was 5.5 ng/g and the concentration at 3 h ([5]; cynomolgus monkey, right cornea, 3 h, 160.580 μg/right eye periorbital skin, read-out: Drug Concentration in Tissue, Right cornea) was 27.9 ng/g. It also gave a concentration at 6 h ([5]; cynomolgus monkey, right cornea, 6 h, 162.230 μg/right eye periorbital skin, read-out: Drug Concentration in Tissue, Right cornea) of 45.5 ng/g, a concentration at 0.5 h ([5]; cynomolgus monkey, right cornea, 0.5 h, 179.120 μg/right eye periorbital skin, read-out: Drug Concentration in Tissue, Right cornea) of 39.6 ng/g and a concentration at 24 h ([5]; cynomolgus monkey, right retina, 24 h, 159.260 μg/right eye periorbital skin, read-out: Drug Concentration in Tissue, Right retina) of 1620 ng/g. It also gave a concentration at 3 h ([5]; cynomolgus monkey, right retina, 3 h, 160.580 μg/right eye periorbital skin, read-out: Drug Concentration in Tissue, Right retina) of 16700 ng/g, a concentration at 6 h ([5]; cynomolgus monkey, right retina, 6 h, 162.230 μg/right eye periorbital skin, read-out: Drug Concentration in Tissue, Right retina) of 23900 ng/g and a concentration at 0.5 h ([5]; cynomolgus monkey, right retina, 0.5 h, 179.120 μg/right eye periorbital skin, read-out: Drug Concentration in Tissue, Right retina) of 9300 ng/g. For the same compound, the concentration at 24 h ([5]; cynomolgus monkey, right upper eyelid, 24 h, 159.260 μg/right eye periorbital skin, read-out: Drug Concentration in Tissue, Right upper eyelid) was 11600 ng/g, the concentration at 3 h ([5]; cynomolgus monkey, right upper eyelid, 3 h, 160.580 μg/right eye periorbital skin, read-out: Drug Concentration in Tissue, Right upper eyelid) was 32500 ng/g and the concentration at 6 h ([5]; cynomolgus monkey, right upper eyelid, 6 h, 162.230 μg/right eye periorbital skin, read-out: Drug Concentration in Tissue, Right upper eyelid) was 7950 ng/g. For the same compound, the concentration at 0.5 h ([5]; cynomolgus monkey, right upper eyelid, 0.5 h, 179.120 μg/right eye periorbital skin, read-out: Drug Concentration in Tissue, Right upper eyelid) was 26500 ng/g, the concentration at 24 h ([5]; cynomolgus monkey, right vitreous humor, 24 h, 159.260 μg/right eye periorbital skin, read-out: Drug Concentration in Tissue, Right vitreous humor) was 19 ng/g and the concentration at 3 h ([5]; cynomolgus monkey, right vitreous humor, 3 h, 160.580 μg/right eye periorbital skin, read-out: Drug Concentration in Tissue, Right vitreous humor) was 7.79 ng/g. For the same compound, the concentration at 6 h ([5]; cynomolgus monkey, right vitreous humor, 6 h, 162.230 μg/right eye periorbital skin, read-out: Drug Concentration in Tissue, Right vitreous humor) was 3.9 ng/g, the concentration at 0.5 h ([5]; cynomolgus monkey, right vitreous humor, 0.5 h, 179.120 μg/right eye periorbital skin, read-out: Drug Concentration in Tissue, Right vitreous humor) was 15.2 ng/g and the “biodistribution via NIODP” value ([5]; periorbital skin) was “eyelid≥retina>>cornea≥vitreous humor”. The “time to complete clearance from plasma” value ([5]; single dose monocular periorbital administration) was at most 24 h, the “drug level delivered to the anterior chamber of the eye as an eye drop” value ([6]; eye drop) was over 1 µg/g and the “biodistribution dose gradient, eye drops” value ([6]; eye drops) was “cornea≥conjunctiva≥anterior sclera≈iris≥ciliary body≥posterior sclera≥aqueous humor≥retina”. For the same compound, the “retina distribution after eye-drop” value ([6]; eye-drop administration) was “less than 60 ng/g”, the Cmax ([6]; male, New Zealand, rabbit, plasma, topical or ocular, ocular instillation to both eyes, 0.12 mg/eye, at 0.5 hours post-dose) was about 2 ng/mL and the “plasma clearance at 24 hours post dose” value ([6]; ocular instillation to both eyes, 0.12 mg/eye) was “good clearance”.
